The source of these data is article PMC4727990 (Bioorganic & medicinal chemistry letters, 2015).

By IC50 is commonly meant the concentration needed to halve the response being measured.

Test [1] has as its system ASCT2. To be noted: cited from earlier work.
Test [2] addresses ASCT2. As to conditions: read-out: apparent affinity; inhibitor of ASCT2; cited from earlier work.
Test [3] deals with T1, ASCT2 (Rattus norvegicus, UniProt D3ZJ25).
T1 sequence (D3ZJ25 1-555): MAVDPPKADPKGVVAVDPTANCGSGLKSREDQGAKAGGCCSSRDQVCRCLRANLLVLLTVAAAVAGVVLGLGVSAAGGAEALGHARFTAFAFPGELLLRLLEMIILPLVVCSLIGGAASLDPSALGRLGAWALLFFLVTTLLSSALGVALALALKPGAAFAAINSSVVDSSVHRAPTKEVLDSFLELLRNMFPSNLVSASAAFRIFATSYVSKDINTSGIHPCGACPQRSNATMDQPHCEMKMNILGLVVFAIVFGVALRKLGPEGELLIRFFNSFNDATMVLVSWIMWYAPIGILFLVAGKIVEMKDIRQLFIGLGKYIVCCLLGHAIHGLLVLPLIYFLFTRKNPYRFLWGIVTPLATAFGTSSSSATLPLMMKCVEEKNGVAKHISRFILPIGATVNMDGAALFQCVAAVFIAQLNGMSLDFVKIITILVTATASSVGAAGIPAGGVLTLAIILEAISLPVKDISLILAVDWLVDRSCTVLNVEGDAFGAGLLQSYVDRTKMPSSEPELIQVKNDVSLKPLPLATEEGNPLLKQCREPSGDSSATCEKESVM
The test is described as follows: ASCT2-mediated 3H-glutamine uptake in C6 cells. In kind it is cell-based.

In the case of `N[C@@H](CCC(=O)Nc1ccc([N+](=O)[O-])cc1)C(=O)O` [Compound 1, L-γ-glutamyl-p-nitroanilide], in the test with ASCT2 [1], the “potency against ASCT2” value is “modest potency in the low millimolar range”. Regarding `N[C@@H](COC(=O)c1ccc(-c2ccccc2)cc1)C(=O)O` [Compound 3, O-(4-phenylbenzoyl)-L-serine], on ASCT2 [2], the Ki is 30 µM. Regarding `Cc1cccc(COc2ccccc2CN(CC[C@H](N)C(=O)O)Cc2ccccc2OCc2cccc(C)c2)c1` [Compound 17], the IC50 at ASCT2 [3] is 9 µM. For the molecule “N-(2-(morpholinomethyl)phenyl)-L-glutamine [Compound 2]”, the “improvement of activity against ASCT2 compared to GPNA” value with ASCT2 [1] is on record as “three-fold improved activity”.
